# In a melting point compilation (Tetko et al.; mined from patent text by program, amines drawn as free bases though some values may be those of a salt):
row,SMILES,melting point [°C]
1,CCNC(=O)ON=C1CCOc2ccc(OC)cc21,97 to 98
2,C=C(C)C(=O)NOC(=O)C(=C)C,55
3,CNS(=O)(=O)C[C@H]1c2cc(OCCCC(F)(F)F)ccc2OC(C)(C)[C@@H]1O,178 to 179
4,CCOC(=O)Sc1cc(C)nc(C(Cl)(Cl)Cl)n1,33 to 34.5
5,COc1c(/C=C/c2ccc(NS(C)(=O)=O)cc2)cc(N2CCC(=O)NC2=O)cc1C(C)(C)C,260 to 261
6,CCCc1oc(C)cc(=O)c1C(=O)Nc1cccc(C)c1C,133 to 135
7,Nc1ncnc2c1ncn2Cc1nc2cc(F)ccc2c(=O)n1-c1ccccc1Cl,217
8,COc1ccc(C(=O)C=Cc2cccc(N(C)C)c2)c(OC)c1OC,87.2 to 87.9
9,O=C1c2ccc(O)cc2C(=O)N1c1ccc(O)cc1,302 to 304
10,Cc1ccccc1-c1cc2cc(O)c(Cl)c(Cl)c2s1,106 to 107
11,NC(=O)c1ccc(OCCCCl)cc1,142 to 143
12,O=S1(=O)c2cccc3cccc(c23)N1CCCN1CC=C(c2c[nH]c3ccccc23)CC1,226
13,COC(=O)c1cc(C=O)c(C)nc1C1=NC(C)(C(C)C)C(=O)N1 (centres undefined),145 to 146
14,COc1ccc(N(CC(O)CO)S(=O)(=O)c2c(F)c(F)c(F)c(F)c2F)cc1 (centres undefined),130 to 131
15,COc1cc(CCCC2OC(=O)NC2=O)cc(OC)c1OCc1coc(/C=C/c2ccccc2)n1 (centres undefined),94 to 95
16,CN1Cc2c(-c3cccs3)ncn2-c2cccc(Cl)c2C1=O,222 to 223
17,CC(C)c1cccc(C(C)C)c1NC(=O)CN1CC2(CCCCC2)N(c2ccccc2)CC1=O,158 to 160
18,CC(=O)Nc1ccc2ccn(C3CCN(CCc4ccc(F)cc4)CC3)c2c1,195 to 196
19,NC(=O)c1cc2c3ccccc3n(Cc3ccccc3)c2s1,207
20,CN(C)CCCOc1ccc(-c2nnc(-c3ccc(-c4ccccc4)cc3)o2)cc1,130 to 132
21,O=C(NCc1cccc(Br)c1)c1ccc2cnccc2n1,112 to 113
22,O=P(O)(O)C(CCCc1ccc(-c2ccccc2)cc1)P(=O)(O)O,199 to 200
23,CN(C)C(=O)[C@@H]1CS[C@@H](CS)C1,41.8 to 44.4
24,O=[N+]([O-])c1ccnc(Nc2nccs2)c1,230 to 233
25,NC(=O)NC1CCN(Cc2ccc3ccccc3c2)CC1,183 to 185
26,N=C(NO)c1cc(Oc2ccc(Cl)cc2Cl)c(O)cc1Cl,137

row,SMILES,melting point [°C]
1,CCOC(=O)Cc1ccc(-c2nc(COc3ccc(COc4nn(-c5ccccc5)cc4/C=C\c4csc(CC)n4)cc3OC)c(C)o2)cc1,136 to 137
2,O=C(c1ccn2c1CSC2c1cccnc1)c1cn(Cc2nnn[nH]2)c2cc(-c3ccc(F)cc3)ccc12 (centres undefined),110 to 118
3,NC(=O)c1nnn(Cc2ccccc2C(F)(F)F)c1N,197 to 198
4,CC(C)(C)OC(=O)N1CCC(N2Cc3ccccc3NC2=NC#N)CC1,249 to 250
5,COCc1c(C(=O)OC(C)C)ncc2[nH]c3ccc(OCc4ccccc4Cl)cc3c12,135 to 141
6,CCCc1nn(-c2ccc(C(F)(F)F)cn2)cc1CCCOc1ccc(CCC(=O)O)c(OCC)c1,119 to 120
7,CCNC(=O)C1CC2(NC(=O)NC2=O)c2cc(F)ccc2O1 (centres undefined),> 300
8,CC(=O)NC(C)COc1c(C)cccc1C (centres undefined),85 to 85.8
9,Cn1cc(C(=O)O)c(=O)c2cc(F)c(N3CCNCC3)cc21,310
10,NCc1noc(-c2ncn3c2[C@@H]2CCCN2C(=O)c2sccc2-3)n1,156 to 158
11,C#CCOC(=O)Oc1ccc2ccc(OC(=O)OCC#C)cc2c1,94 to 96
12,O=C(COc1ccc(-c2ccccc2-c2nn[nH]n2)cc1)C1CC1,184 to 185
13,Cc1ccccc1NC(=O)CI,145 to 146
14,O=C(O)c1ccc(-c2nnc(-c3ccc(C(F)(F)F)cc3)o2)cc1,> 300
15,O=C1NC(=O)C(c2c[nH]c3ccccc23)C1C(=O)c1cn2c3c(cccc13)CCC2 (centres undefined),283 to 285
16,CC(C)=NNc1cc2c(nn1)CCN(C(=O)c1ccc(Cl)cc1Cl)C2,211 to 214
17,Oc1ccc(-c2nnsc2-c2ccc(O)cc2)cc1,221
18,Cc1nc(N2CCc3ccccc3CC2)c(C#N)c(=O)n1CC(F)(F)F,108 to 110
19,CC1(C)NC(=O)CN1C(=O)CCl,151 to 153
20,COC(=O)N[C@@H](Cc1ccccc1)C(=O)CCl,121 to 122
21,O=C1N(CC2CCCO2)c2cc(F)ccc2C12COc1cc3c(cc12)CCO3 (centres undefined),137 to 139
22,CC(=O)OCc1cc(=O)c(Oc2ccc(Cl)cc2)c(-c2ccc(S(C)(=O)=O)cc2)o1,115
23,Cc1cc(Cn2cncc2C)cc2c1Cc1c(-c3ccsc3)n[nH]c1-2,260 to 264
24,COC(=O)NNC(=O)Nc1ccccc1,154 to 155
25,CCCCc1nc(C(O)C(C)(C)C)c(C(N)=O)n1Cc1ccc(-c2ccccc2C(=O)O)cc1 (centres undefined),150 to 154
26,O=C(Nc1ccc(-n2ccnc2)cc1)NC12CC3CC(CC(C3)C1)C2,272 to 276

row,SMILES,melting point [°C]
1,Cc1ccccc1-c1nc(Cl)c2ccccc2n1,103 to 104
2,COC(=O)c1cnn2c(O)cc(C(F)(F)F)nc12,216 to 217
3,O=S(=O)(Cc1coc(/C=C/c2ccccc2)n1)c1ccc(CCCn2ccnc2)cc1,116 to 117
4,C=CC(=N)NS(N)(=O)=O,72 to 75
5,COc1ccc(-c2cc(=O)n(C)c(OC(C)C)n2)cc1OC,124 to 126
6,C=C(C(=O)c1ccc(C(=O)O)cc1)c1cc(-c2cccs2)ccc1OC,> 250
7,CC(C)(C)c1ccc(C2(CN)CC2)cc1,39 to 41
8,CCCCN(C)c1nsc(NC(=O)NC)c1C#N,109 to 110
9,Cc1cc(-c2cccc(C(F)(F)F)c2)n2ncc(C(=O)c3ccccc3)c2n1,153 to 154
10,CSCc1nc2c(N)nc3ccccc3c2n1Cc1ccccc1,217 to 219
11,Cc1ccc(N(C)S(=O)(=O)c2cccs2)c2[nH]c(C3=NCC(CCO)S3)cc12 (centres undefined),168 to 169
12,CCN(CC)S(=O)(=O)c1ccccc1S(=O)(=O)NC(=O)Nc1nc(C)cc(OC)n1,170 to 172
13,CSC1NC(=O)N(c2ccc(Cl)c(Cl)c2)C(=O)N1N=C(C)C (centres undefined),181 to 182
14,NC(=O)c1c(CN2CCC(c3ccccc3)(c3ccccc3)CC2)ncn1Cc1ccc(Cl)cc1,227 to 228
15,CCc1cc(C[C@H](NC(=O)c2c(Cl)cccc2Cl)C(=O)O)ccc1-c1ccccc1OC,105 to 107
16,O=c1c2c[nH]c3c(c-2nn1-c1ccccc1)CCC3,> 350
17,COc1ccc(C=Cc2cc(OC)c3c(c2)OCO3)cc1O,145 to 150
18,C=CCOc1cn(C)c2cc(OCC(F)(F)F)ccc2c1=O,120
19,c1ccc2oc(NCc3ccncc3)nc2c1,148
20,CC(=O)Sc1c(F)c(F)c(C=O)c(F)c1F,86 to 87
21,Cc1c(C#N)sc(N=Nc2c(NCCO)nc(NCCO)c(C#N)c2C)c1C#N,268 to 269
22,Cc1ccc(C2CCc3ccccc3O2)cc1 (centres undefined),94
23,O=c1[nH]nc(-c2nc3ccccc3o2)[nH]1,> 300
24,CC1(C)CC(=C(c2ccc(O)cc2)c2ccc(-c3ccoc3)cc2)CC(C)(C)C1,128 to 129
25,Cc1cc(-c2ccc(C#N)cc2)sc1C(=O)O,248 to 253
26,Cc1ccc(C2C(=O)CCCC2=O)c(C)c1,143 to 145

row,SMILES,melting point [°C]
1,COc1cc2nc(-c3ccc(Cl)cc3)nc(O)c2cc1OC,329
2,CC(C)(C)OC(=O)N1CCc2c(oc3cc(S(=O)(=O)c4cccc(F)c4)ccc23)C1(C)C,58 to 60
3,CC(NC(=O)OC(C)(C)C)C(=O)NO (centres undefined),74 to 76
4,O=C(Nc1ccc2c(c1)CCN(C(=O)OCc1ccccc1)C2)OCc1ccccc1,115 to 116
5,Cc1nc2c(Br)cnn2c(Cl)c1CCCl,128 to 130
6,c1cc(NC2=NCCN2)ccc1Cc1ccc(OC2CCOCC2)cc1,169 to 170
7,O=CN[C@H]1CC[C@H](CCN2CCC(c3cccc4c3CCO4)CC2)CC1,142
8,N#Cc1c(N2CCN(C(=O)c3cccs3)CC2)c2cccnc2n(Cc2cccc(F)c2)c1=O,231
9,O=C/C(=C/c1ccc(Cl)cc1Cl)c1ccc(Cl)cc1,106 to 109
10,O=S1CC2CC(CN(Cc3ccccc3)C2)C1 (centres undefined),137 to 138
11,COc1c(C)cc(-c2cncc(OC3SCC(O)C(O)C3O)c2)cc1C (centres undefined),173
12,CCCc1nc2c(N)nc3cc(-c4ccccc4)ccc3c2n1CC(C)(C)NS(C)(=O)=O,135 to 141
13,CCCC(=O)Oc1ccc2sc(S(N)(=O)=O)nc2c1,132
14,CCCCC(=O)OCc1cnc(C)c(O)c1,114 to 115
15,C[C@@H](Cn1ncc2ccc(OC[C@@H]3CO3)c(C=O)c21)NC(=O)OCc1ccccc1,90 to 92
16,O=C(O)Cc1cccc2ccoc12,115 to 118
17,Cc1cn(-c2cccc(OS(N)(=O)=O)c2)cn1,202 to 204
18,CN1CCC(c2c[nH]c3ccc(OS(=O)(=O)c4ccc(F)c(F)c4F)cc23)CC1,160 to 162
19,CCCc1nc(C)nc(Cl)c1Cc1ccc([N+](=O)[O-])cc1,65
20,COc1cc(C)c(C(=O)c2c(C)c(C)cc(C)c2C)c(OC)c1OC,143
21,Cc1ccccc1-n1c(-c2cc(-c3ccc(Cl)cc3)c(N3CCOCC3)s2)nc2ccccc2c1=O,186 to 189
22,CC(C)(C)OC(=O)NCCCn1ncc2cc(Br)ccc2c1=O,130 to 132
23,COc1ccc(N(C(=O)CNC(=O)Nc2cccc(C)c2)c2ccccc2)cc1,182
24,CCOC(=O)CC(=O)c1cc(C#N)ccc1F,55 to 60
25,O=C(O)c1cc2c(F)ccc(Cl)c2s1,248 to 249
26,N#Cc1ccc(C(OCC2OC(n3ccc(=O)[nH]c3=O)CC2O)(c2ccccc2)c2ccccc2)cc1 (centres undefined),92 to 95
